Measured values taken from patent US20230210116A1, “HONEYBEE REPELLENT” (EARTH CORPORATION, priority 2020, published 2023).

Legend:
[1] = tested on: honeybees; assay: Test for Confirmation of Honeybee Repelling Effect 1, 2, 3 (feeding station with 40% sugar water); type: in vivo; conditions: for Corrected repelling rate (%) Honeybees: Test 3, 5 mL; for Corrected repelling rate R (%): honeybees
Description: The following were used as the test samples for Examples: 2% by weight per volume ethanol solutions of octane (a-1), tetradecane (a-2), heptadecane (a-3), nonadecane (a-4), 2-acetylfuran (b-1), 5-methyl-2-furaldehyde (b-2), furfural (b-3), furaneol (c-1), 2-acetylpyrrole (d-1), 1-benzylpyrrole (d-2), 1-octanol (e-1), 1-dodecanol (e-2), and 1-octadecanol (e-3), respectively; and 2% by weight per volume aqueous solutions of furfuryl alcohol (b-4), sotolon (c-2), and α-angelicalactone (c-3), respectively.
The following were used as the test samples for Comparative Examples: 2% by weight per volume ethanol solutions of eicosane (carbon number 20, p-1), heneicosane (carbon number 21, p-2), 2-methyloctane (branched alkane, p-3), tributyl o-acetylcitrate (p-4), and 1-methylpyrrole (p-5), respectively; and 2% by weight per volume aqueous solutions of 2-methyltetrahydrofuran-3-one (p-6) and acetic acid (p-7), respectively.
Ethanol alone and water alone were used as samples for correction.
The cotton pads 13 were impregnated with 40% sugar water (80 g), after which disposable wooden chopsticks 15 (80 mm in length) were placed over the cotton pads on the lid surface as “landing areas,” for use as “test insect (honeybee) feeding station 1” 10.
A nest box of test insects (honeybees) (1 colony: approx. 6,000 bees) was placed at the center of a glass hothouse (bottom face: 5 m×10 m, height (highest part): 3 m, temperature: 25° C.), and the aforementioned “test insect (honeybee) feeding station 1” was installed at a location 2 meters away from the nest box.
After confirming that at least five test insects (honeybees) were feeding at the above “test insect (honeybee) feeding station 1” installed in the hothouse, test 1 was conducted to measure the “approaching count (Mz)” and “landing count (My)” and calculate the “landing rate (Mx).”
Next, the “test insect (honeybee) feeding station 1” installed in the hothouse was replaced with each “test insect (honeybee) feeding station 2” which was let to stand still for 5 minutes, after which test 2 was conducted to measure the “approaching count (Nz)” and “landing count (Ny)” and calculate the “landing rate (Nx).”
Approaching count: Total number of times a honeybee has approached within 25 cm of the cotton wools at the feeding station during 5 minutes
Landing count: Total number of honeybees that have remained for at least 1 second on the cotton pads at the feeding station during 5 minutes
Landing rate (%): (Landing count/Approaching count)×100
The “repelling rate Q” and “corrected repelling rate R” were calculated from the above “landing rates” using the calculation formula below. For the “repelling rate of sample for correction” used to calculate the “corrected repelling rate R,” the repelling rate of each of the samples for correction above (ethanol alone or water alone being a solvent for the active ingredient) was used.
Repelling rate Q (%)={(Mx)−(Nx)}/(Mx)×100
Corrected repelling rate R (%)={Repelling rate of test sample−Repelling rate of sample for correction}/{100−Repelling rate of sample for correction}×100
The following were used as the test samples for Examples: 0.1% by weight per volume ethanol solutions of 3-methyl-2-butanol (e-4), carvacrol (x-1), isoeugenol (x-2), cinnamyl alcohol (x-3), diacetone alcohol (x-4), α-amylcinnamaldehyde (x-5), 3-methyl-2-butenal (x-6), valeraldehyde (x-7), ethyl cinnamate (x-8), methyl cinnamate (x-9), ethyl isovalerate (x-10), isoamyl formate (x-11), 5-ethyl-2-methylpyridine (x-12), 2-(3-phenylpropyl)pyridine (x-13), 2,6-dimethylpyridine (x-14), ß-ionone (x-15), 2-acetylthiazole (x-16), butylamine (x-17), and citronella oil (x-18), respectively; and a 0.1% by weight per volume aqueous solution of (3-amino-3-carboxypropyl)dimethylsulfonium chloride (x-19).

[2] = tested on: stink bugs; assay: Test for Confirmation of Stink Bug Behaviors against Active Ingredients 1, 2, 3 (treated filter paper); type: in vivo, southern green stink bugs
Description: The test samples in “Test for Confirmation of Honeybee Repelling Effect 1” above were used.
A liquid calcium carbonate/ethanol dispersion was applied on the entire interior wall of a KP cup (100 mm in diameter×90 mm in height) and air-dried, after which a filter paper (90 mm in diameter) was fixed on the bottom face of the KP cup using double-sided tape. A different filter paper (90 mm in diameter) was cut along its diameter and the resulting semicircle-shaped paper was uniformly treated with 400 μL of each test sample or sample for correction, and then placed over the filter paper fixed on the aforementioned bottom face of the KP cup by allowing the circular parts to overlap, for use as a testing device.
The “repelling rate Y” and “corrected repelling rate Z” were calculated from the above “time A (sec)” and “time B (sec)” using the calculation formula below. For the “repelling rate of sample for correction” used to calculate the “corrected repelling rate Z,” the repelling rate of each of the samples for correction above (ethanol alone or water alone being a solvent for the active ingredient) was used.
Corrected repelling rate Z (%)={Repelling rate of test sample−Repelling rate of sample for correction}/{100−Repelling rate of sample for correction}×100
For the test samples, the test samples in “Test for Confirmation of Honeybee Repelling Effect 2” above were used.

[3] = 0.1% by weight per volume solution
[4] = Test 3, 0.1% by weight per volume solution, 400 μL
[5] = Test 2, 0.1% by weight per volume solution, 5 mL (active ingredient 5 mg)
[6] = Test 2, 0.1% by weight per volume solution, 400 μL
[7] = Test 1, 2% by weight per volume solution, 5 mL sprayed (active ingredient 0.1 g)
[8] = Test 1, 2% by weight per volume solution, 400 μL on filter paper, 30 minutes

Compound	Corrected repelling rate (%) Honeybees [1, 3] [%]	Corrected repelling rate (%) Stinkbugs [2, 4]	repelling of stink bugs and other injurious insects to be exterminated (in words) [2]	also measured
C=CCOC(=O)CCCCC [y-49, allyl hexanoate]	33.5	∘	–	–
CCCCCCCCCCCC(=O)OCC [y-41, ethyl laurate]	59.6	∘	not repelling stink bugs	–
COC(=O)c1ccccc1N [y-33, methyl anthranilate]	51.0	∘	not repelling stink bugs	–
C=CCOC(=O)Cc1ccccc1 [y-44, allyl phenylacetate]	73.6	∘	not repelling stink bugs	–
COC(=O)C=Cc1ccccc1 [x-9, methyl cinnamate]	–	–	–	Corrected repelling rate R (%) [1, 5]: 93.3%; Corrected repelling rate (%) Stinkbugs [2, 6]: <0%
CCCC(=O)OCCC(C)C [y-51, isoamyl butyrate]	–	–	not repelling stink bugs	Corrected repelling rate (%) Honeybees ([1]; 2.0% by weight per volume solution): 75.9%; Corrected repelling rate (%) Stinkbugs ([2]; Test 3, 2.0% by weight per volume solution, 400 μL): ∘
CCOC(=O)c1ccc(O)cc1 [y-17, ethyl 4-hydroxybenzoate]	56.6	∘	not repelling stink bugs	–
CCCCCC1CCCCC(=O)O1 (centres unmarked) [y-66, 6-undecanolactone]	69.3	∘	not repelling stink bugs	–
COc1cc(C=O)ccc1O [y-7, vanillin]	61.2	∘	not repelling stink bugs	–
C=CCOC(=O)CCC1CCCCC1 [y-43, allyl cyclohexanepropionate]	90.4	∘	not repelling stink bugs	–
CCCCC(CC)COC(=O)c1ccccc1O (centres unmarked) [y-22, 2-ethylhexyl salicylate]	23.7	∘	–	–
c1cnccn1 [y-57, pyrazine]	51.3	∘	not repelling stink bugs	–
CCOC(=O)CC(C)(C)C [y-42, ethyl tert-butylacetate]	27.7	∘	–	–
c1ccc(-c2nc3ccccc3nc2-c2ccccc2)cc1 [y-84, 2,3-diphenylquinoxaline]	75.8	∘	not repelling stink bugs	–
Cc1cccc2ccccc12 [y-87, 1-methylnaphthalene]	74.3	∘	not repelling stink bugs	honeybee repelling rate ([1]; Test 3, summary in text): ≥ 50%
Cc1cccc(C)n1 [x-14, 2,6-dimethylpyridine]	–	–	–	Corrected repelling rate R (%) [1, 5]: 50.0%; Corrected repelling rate (%) Stinkbugs [2, 6]: <0%
CCCCCCCC1CCCC(=O)O1 (centres unmarked) [y-65, δ-dodecalactone]	86.6	∘	not repelling stink bugs	–
CC(=O)c1ccco1 [b-1, 2-acetylfuran]	–	–	–	Corrected repelling rate R (%) [1, 7]: 60.3%; Corrected repelling rate (%) Stinkbugs [2, 8]: <0%
CC1=C(O)C(=O)C(C)O1 (centres unmarked) [c-1, furaneol]	–	–	–	Corrected repelling rate R (%) [1, 7]: 44.0%; Corrected repelling rate (%) Stinkbugs [2, 8]: <0%
CCCC(=O)O [y-73, butyric acid]	33.0	∘	–	–
c1ccc2ncccc2c1 [y-81, quinoline]	80.2	∘	not repelling stink bugs	–
